The values that follow come from publication PMC8279406 (Journal of Medicinal Chemistry, 2021).

The structures appear in SMILES notation.

Assay [1] concerns the target T1, human αvβ6 integrin (Homo sapiens, UniProt P06756+P18564).
T1 construct: using immobilized ECM protein and soluble integrin; purchased R&D Systems (Biotechne brand) 3817-AV
The assay is described as follows: LAP(TGF-β1)-αvβ6 competitive solid-phase ELISA binding assay. To be noted: immobilized LAP, soluble integrin. The procedure:
(§1) The affinity and selectivity of the integrin peptide ligands were ascertained according to a modified method previously reported by some of us.[33],[47] The binding was determined in a competitive solid-phase binding assay using extracellular matrix proteins, soluble integrins, and pertinent integrin-specific antibodies in an enzyme-linked immunosorbent assay (ELISA).
A flat-bottom 96-well ELISA plate was coated overnight at 4 °C with 100 μL/well of 0.4 μg/mL LAP previously diluted in carbonate buffer (15 mM Na2CO3, 35 mM NaHCO3, pH 9.6). Afterward, each well was then washed three times with 200 μL of PBS-T buffer (137 mM NaCl, 2.7 mM KCl, 10 mM Na2HPO4, 2 mM KH2PO4, 0.01% Tween 20, pH 7.4) and blocked for 1 h at room temperature with 150 μL/well TSB buffer (20 mM Tris–HCl, 150 mM NaCl, 1 mM CaCl2, 1 mM MgCl2, 1 mM MnCl2, pH 7.5, 1% BSA). Then, each well was washed three times with 200 μL of PBS-T.
Equal volumes (50 μL) of the internal standard (or test compounds) were mixed with 0.5 μg/mL human integrin αvβ6 (50 μL) giving a final dilution series in TSB buffer of 0.00064–10 μM for the inhibitors and 0.25 μg/mL for integrin αvβ6. These solutions (100 μL/well) were added to the flat-bottom ELISA plate and incubated for 1 h at room temperature. The solutions were discarded from the wells, and the plate was washed three times with PBS-T buffer (3 × 200 μL). […] The solutions were discarded from the wells, and the plate was washed three times with PBS-T (3 × 200 μL). The binding assay was developed by adding 50 μL/well of the 3,3′,5,5′-tetramethylbenzidine (TMB) liquid substrate system and incubating for 1 min at room temperature. The reaction was stopped by adding 50 μL/well of 3 M H2SO4. The peroxidase product formation was detected by measuring the absorbance at […] using a plate reader (Tecan SpectraFLUOR plus, Männedorf, Switzerland). Each compound concentration was tested in duplicate, and the resulting inhibition curves were analyzed using OriginPro 7.5G software; the inflection point describes the IC50 value. Each plate contained a linear peptide ([…]) as the internal standard.[63]

For assay [2], the target named is T2, human αvβ3-integrin (Homo sapiens, UniProt P05106+P06756).
T2 construct: purchased R&D Systems (Biotechne brand) 3050-AV
The assay is described as follows: Vitronectin-αvβ3 competitive solid-phase ELISA binding assay. The procedure:
as §1
The experimental procedure was as described for the αvβ6 assay, except for the following modifications. The plates were coated with 100 μL/well of 1.0 μg/mL vitronectin in carbonate buffer, washed, and blocked as described above. […] As a primary antibody, 100 μL/well of 2.0 μg/mL primary antibody (mouse antihuman CD51/61) was used. The secondary antibody used was the same as that used for the integrin αvβ6 assay. Visualization and analysis were performed as described above.

Assay [3] addresses T3, human α5β1 integrin (Homo sapiens, UniProt P05556+P08648).
T3 construct: purchased R&D Systems (Biotechne brand) 3230-A5
The assay is described as follows: Fibronectin-α5β1 competitive solid-phase ELISA binding assay. As to conditions: immobilized fibronectin, soluble integrin. The procedure:
as §1
The experimental procedure was as described for the αvβ6 assay, except for the following modifications. […] Visualization and analysis were performed as described above.
In general terms: An ELISA detects its analyte on a solid surface through an enzyme-linked reagent.

As usually defined, the IC50 is the concentration at which inhibition is half-maximal. Lower therefore signals inhibition by little substance.

With `CN1C(=O)[C@H](C2CCCCC2)NC(=O)[C@H](CC(=O)O)NC(=O)CNC(=O)[C@H](CCCNC(=N)N)NC(=O)CC[C@H]1C(N)=O` [compound 6, [Arg-Gly-Asp-Chg-(NMe)Glu]-CONH2], the IC50 is 1.6 ± 0.1 nM in assay [1]; 1200 ± 121 nM in assay [2] (competitive ELISA, immobilized vitronectin, soluble integrin); 112 ± 26 nM in assay [3]. In addition, the “binding affinity for αvβ3 (in words)” value in assay [2] was “no significant binding affinity”.
